Assay results published in patent US8507460B2, “Substituted 3′,5′-cyclic phosphates of purine nucleotide compounds and pharmaceutical compositions for the treatment of viral infections” (priority 2011, dated 2013).

Tests used:
HCV genotype 1b replicon = test: HCV Replicon Assay (Zluc luciferase reporter); type: cell-based
Description: Huh-7-derived cell line (Zluc) that harbors an HCV genotype 1b replicon and a luciferase reporter gene was grown in Dulbecco's Modified Eagle Medium (DMEM) supplemented with 10% fetal bovine serum, 2 mM GlutaMAX, 1% MEM nonessential amino acids, 100 IU/mL penicillin, 100 μg/mL streptomycin, and 0.5 mg/mL Geneticin® (G418). For dose response testing the cells were seeded in 96-well plates at 7.5×10^3 cells per well in a volume of […], and incubated at 37° C./5% CO2. Drug solutions were made up freshly in Huh-7 media as 2× stocks. […] 5-fold dilutions were prepared from these stocks in DMEM without G418. At least three hours after Zluc cells were seeded, drug treatment was initiated by adding 50 μL of drug dilutions to the plates in duplicate. Final concentrations of drug ranged from 100 μM to 0.0000512 μM. Cells were then incubated at 37° C./5% CO2. Alternatively, compounds were tested at two concentrations (1 μM and 10 μM). […] After 72 hours of incubation, the inhibition of HCV replication was measured by quantification of photons emitted after mono-oxygenation of 5′-fluoroluciferin to oxyfluoroluciferin by firefly luciferase. For this, media was removed from the plates via gentle tapping. Fifty microliters of ONE-glo luciferase assay reagent was added to each well. The plates were shaken gently for 3 min at room temperature and luminescence was measured on a Victor^3 V 1420 multilabel counter (Perkin Elmer) with a 1 second read time using a 700 nm cut-off filter. The EC50 values were calculated from dose response curves from the resulting best-fit equations determined by Microsoft Excel and XLfit 4.1 software. When screening at two fixed concentrations, the results were expressed as % inhibition at 1 μM and 10 μM.

Stability in mouse blood = type: in vitro ADME; details: mouse whole blood, on ice, percent unchanged
Description: Stability of test compounds were determined in fresh human whole blood with K2EDTA as the anticoagulant (stored refrigerated at 2-8° C. and used within 7 days of receipt). The experiment was conducted with three replicates for each time point. Whole blood, pre-incubated at 37° C. for 10-15 minutes, was fortified with a solution of test compound for a final concentration of 0.5 μM and mixed for 30 sec. At intervals (0, 0.5, 1 and 2 hr), three […] aliquots were combined with 200 μL (each) of an ice-cold solution of the internal standard (carbutamide 500 ng/mL in acetonitrile). The samples were vortexed for 30 sec and then centrifuged at 16,100 g for 5 min. The supernatant was analyzed by LC-MS/MS. The MS peak area ratio of the test compound versus the internal standard was calculated and percent unchanged test compound was calculated for each time point using this ratio.
The stability in mouse blood was determined on ice at 0, 0.5 and 1 hr as above.

[1] = Plasma and liver pharmacokinetics following a single oral dose in mice (Example 6); type: in vivo; details: mouse, plasma, CD-1 mice, oral 25 mg/kg, 1a average of N = 2
Description: For each compound, a single oral dose at 25 mg/kg in PEG 200 (dose volume 5 mL/kg) was administered to [CD-1] mice. Untreated animals were used for the collection of control liver. Terminal liver and plasma samples were collected from three animals per time point at 4, 12 and 24 hours post dose and additionally at 1 hour post dose in one occasion of Compound 1 (see Example 5). Liver specimens were collected from all animals immediately after the incision. Freezing forceps stored in liquid nitrogen were used to freeze the liver before excision.
Plasma samples were analyzed for the prodrug and 2′-methylguanosine (2′-MeG) or relevant nucleoside by LC-MS/MS. For protein precipitation and extraction, each plasma sample (50 μL) was treated with 500 μL of 0.2% formic acid in acetonitrile and 20 μL of an appropriate internal standard working solution. After vortexing and centrifugation, 500 μL of the sample extracts were transferred to a new plate, dried under N2 at ˜28° C. and reconstituted with 75 μL of 0.2% FA in water. The extracts were chromatographed on an Aquasil C18 column using a gradient system of 0.2% formic acid in water and acetonitrile. The analytes were detected and quantified by tandem mass spectrometry in positive ion mode on an MDS Sciex API5000 or an API4000 equipped with a Turbo Ionspray® interface. The calibration range was 0.500 (LLOQ) to 200 ng/mL in mouse plasma. The corresponding range for molar units is 1.68 to 673 pmol/mL.
Liver samples were analyzed for the active species 2′-methylguanosine triphosphate (2′-MeGTP) or relevant nucleoside triphosphate by LC-MS/MS. The triphosphate levels were assayed by homogenizing (on ice) a known weight of mouse liver with 4× volume of 0.95 M trichloroacetic acid (TCA). Appropriate internal standard solution was added to the homogenate followed by neutralization with 20% ammonium hydroxide solution and addition of 500 μL 1% formic acid. The tissue samples were extracted by weak anion exchange solid phase extraction (SPE). Post extraction, the eluates were evaporated under nitrogen, followed by reconstitution before injection onto the LC-MS/MS system. The samples were chromatographed on a Luna NH2 column using a gradient system of ammonium acetate (1 mM to 20 mM and pH 8.0 to pH 10.0) in water and acetonitrile (70:30). The analyte was detected and quantified by tandem mass spectrometry in positive ion mode on an API4000 equipped with a Turbo Ionspray® interface. The calibration range was 10 to 10000 pmol/mL in mouse liver homogenate (50 to 50000 pmol/g of mouse liver).

[2] = Stability in liver and intestinal subcellular fractions (microsomes and S9); type: in vitro ADME, human; details: 10 μM, NADPH, 60 min, percent unchanged
Description: Stability of test compounds were determined in subcellular fractions (microsomes and S9) of human liver and intestine in duplicate for each matrix. Pooled liver and intestinal microsomal, intestinal and liver S9 proteins (1.0 mg/mL), suspended in incubation buffer (100 mM potassium phosphate, pH […], and 0.1 mM EDTA), were preincubated for 5 min at 37° C. with 10 μM of a test compound from a 10 mM stock solution in DMSO (final DMSO concentration was 0.1%); the reaction was initiated by the addition of NADPH (3 mM final concentration). At specific times (0 and 60 min), 0.1 mL samples were taken and the reaction terminated by the addition of 4 volumes of stop solution (acetonitrile with 500 ng/mL carbutamide as an internal standard). The samples were vortexed for 30 sec and then centrifuged at 16,000 g for 10 min. 100 μL of supernatants were transferred to 96 deep-well plates preloaded with 100 μL distilled water and analyzed after mixing by LC-MS/MS. The MS peak area ratio of the test compound versus the internal standard was calculated and percent unchanged test compound over 60 minutes was calculated using this ratio.

In the case of `CCOc1nc(N)nc2c1ncn2[C@@H]1O[C@@H]2COP(=O)(OC(C)C)O[C@H]2[C@@]1(C)O` (single isomer, unassigned) [Compound 1a], the selectivity index (HCV genotype 1b replicon; HCV replicon assay, Zluc cells) is reported as “greater than 100”, the EC50 (HCV genotype 1b replicon; Zluc cells (Huh-7-derived, HCV genotype 1b replicon, luciferase reporter), 72 hours) is reported as no more than 250 nM and the “Stability WB_Mouse (ice; 1 hr)” value (Stability in mouse blood) is reported as 94%. For the same compound, the AUC(0-t) ([1]; normalized to 1 μmol/kg dose, read-out: Plasma prodrug AUC0-24) was 0.34 µM·h, the Cmax ([1]; normalized to 1 μmol/kg dose, read-out: Plasma prodrug Cmax) was 43 nM and the Tmax ([1]; read-out: Plasma prodrug Tmax) was 3 h. For the same compound, the “Stability HIS9 (1 hr)” value ([2]; HIS9 1.0 mg/mL) was 106%, the “Stability HIM (1 hr)” value ([2]; human intestinal microsome 1.0 mg/mL) was 107% and the “Stability HLS9 (1 hr)” value ([2]; human liver S9 fraction 1.0 mg/mL) was 111%. The “Stability HLM (1 hr)” value ([2]; human liver microsome 1.0 mg/mL) was 100%.
